Reference: US4556735A, “Spergualin-related compounds having a phenylene group as well as a process for producing the same” (Zaidan Hojin Biseibutsu Kagaku Kenkyukai, priority 1984, dated 1985)
Structures can show the parent of a compound that is named as a salt.

Key:
[1] = Stability of the compounds in aqueous solution (percent residue by high pressure liquid chromatography); format: physicochemical; details: 0.5 (w/w) % in water, 40°±1° C.
Procedure: Each of the compounds of the present invention was dissolved in water to give a concentration of 0.5 (w/w) %. The aqueous solution was held at 40°±1° C. and samples were taken at given intervals. They were subjected to high pressure liquid chromatography and the percent residue was calculated for each sample by measuring the peak area ratio.
The percent residue for the compounds of the present invention after the lapse of a given period is shown in Table 2, with the value for the start of the experiment being taken as 100%.

[2] = system: rats; assay: Toxicity in rats (decrease rate of body weight); format: in vivo, rat; details: intraperitoneal, once a day for 10 days, 6.25 mg/ml in 0.2 ml/100 g
Procedure: The compound No. 1 was dissolved in physiological saline (the concentration of the compound No. 1: 6.25 mg/ml). The obtained solution was administered intraperitoneally to rats once a day for 10 consecutive days in a volume of 0.2 ml/100 g (body weight).
Decrease rate of body weight of rats was determined as follows: [formula]

[3] = system: mouse leukemia L1210; assay: Life extending effect against mouse leukemia L1210; format: in vivo; details: 9 consecutive days, >125 considered effective
Procedure: Leukemia cells L1210 (1×10^5 cells/0.2 ml) were inoculated in the intraperitoneal cavity of CDF1 -SLC female mice (6 mice per group). Two compounds of the present invention were each diluted with physiological saline in various concentrations, and starting on the day following the transplantation, each dilution was administered to the mice for 9 consecutive days in a volume of 0.1 ml 10 g (body weight).
30 Days after the inoculation, the mean survival time (day) for each treated group was calculated, and divided by the mean survival time of the control group, and multiplied by 100 to obtain the percent life prolongation (T/C). T/C values greater than 125 are considered to be effective.

[4] = system: mouse leukemia L1210 cells; assay: Inhibition of in vitro growth of mouse leukemia L1210 cells; format: cell-based; details: 48 hours at 37° C., 5% CO2
Procedure: Leukemia L1210 cells (1×10^5 /0.2 ml) were transplanted in the intraperitoneal cavity of DBA/2 strain female mice. Four days later, a sample of the abdominal ascites was taken and centrifuged to obtain L1210 cells. These cells were suspended in an RPMI 1640 medium supplemented with fetal bovine serum and 2-mercaptoethanol to have a final concentration of 5×10^4 cells/0.9 ml.
Each of the compounds of the present invention was dissolved in the medium shown above.
A portion (0.9 ml) of the L1210 cell suspension was mixed with 0.1 ml of the test solution ranging from 0.62 to 1000 μg/ml, and the mixture was incubated in a 5% CO2 atmosphere for 48 hours at 37° C. The cell count was determined both before and after the incubation, and the concentration to inhibit the growth of L1210 cells by 50% of the control (IC50) was determined.

[5] = prior art statement; cited from earlier work
[6] = system: Gram-positive microorganisms; details: cited from earlier work
[7] = system: mouse leukemia L1210; details: cited from earlier work
[8] = system: leukemia EL-4; details: cited from earlier work
[9] = system: Ehrlich carcinoma; details: cited from earlier work
[10] = system: Sarcoma 180; details: cited from earlier work

| Percent residue in aqueous solution ([1]; Time 0 (taken as 100%)) | Percent residue in aqueous solution ([1]; Time 12 (time unit not given)) | Percent residue in aqueous solution ([1]; Time 24 (time unit not given)) | Percent residue in aqueous solution ([1]; Time 48 (time unit not given)) | Percent residue in aqueous solution ([1]; Time 72 (time unit not given)) | Percent residue in aqueous solution ([1]; Time 120 (time unit not given)) | Percent residue in aqueous solution ([1]; Time 168 (time unit not given)) | IC50 [4] | SMILES | other results |
| --- | --- | --- | --- | --- | --- | --- | --- | --- | --- |
| 100% | 99.7% | 99.9% | 99.8% | 99.9% | 100% | 99.8% |  | N=C(N)Nc1ccc(CCCC(=O)NCC(=O)NCCCCNCCCN)cc1 [Compound 2, 10-{N-[4-(4-GP)Butanoyl]glycyl}-1,5,10-TAD trihydrochloride] | T/C (percent life prolongation) ([3]; 0.39 mg/kg/day): 109%; T/C (percent life prolongation) ([3]; 0.78 mg/kg/day): 145%; T/C (percent life prolongation) ([3]; 1.56 mg/kg/day): 435%; T/C (percent life prolongation) ([3]; 3.13 mg/kg/day): 435%; T/C (percent life prolongation) ([3]; 6.25 mg/kg/day): 435%; T/C (percent life prolongation) ([3]; 12.50 mg/kg/day): 435%; T/C (percent life prolongation) ([3]; 25.00 mg/kg/day): 435%; T/C (percent life prolongation) ([3]; 50.00 mg/kg/day): 15% |
| 100% | 99.6% | 99.5% | 99.8% | 99.6% | 99.6% | 99.8% |  | N=C(N)NCc1ccc(CCC(=O)N[C@@H](CO)C(=O)NCCCCNCCCN)cc1 [Compound 3, 10-{N-[3-(4-GMP)Propanoyl]-L-seryl}-1,5,10-TAD trihydrochloride] |  |
| 100% | 99.6% | 99.9% | 99.6% | 99.7% | 99.9% | 99.5% | 1.1 µg/mL | N=C(N)NCCCc1ccc(C(=O)N[C@@H](CO)C(=O)NCCCCNCCCN)cc1 [Compound 4, 10-{N-[4-(3-GPro)Benzoyl]-L-seryl}-1,5,10-TAD trihydrochloride] |  |
| 100% | 99.9% | 99.6% | 99.6% | 99.9% | 99.6% | 99.8% |  | N=C(N)NCc1cccc(CCC(=O)N[C@@H](CO)C(=O)NCCCCNCCCN)c1 [Compound 5, 10-{N-[3-(3-GMP)Propanoyl]-L-seryl}-1,5,10-TAD trihydrochloride] |  |
| 100% | 99.5% | 99.8% | 99.7% | 99.7% | 99.5% | 100% |  | N=C(N)Nc1ccc(CCCCC(=O)N[C@@H](CO)C(=O)NCCCCNCCCN)cc1 [Compound 6, 10-{N-[5-(4-GP)Pentanoyl]-L-seryl}-1,5,10-TAD trihydrochloride] |  |
| 100% | 99.6% | 99.6% | 100% | 100% | 99.9% | 99.7% | 0.92 µg/mL | N=C(N)NCCCc1ccc(C(=O)NCC(=O)NCCCCNCCCN)cc1 [Compound 7, 10-{N-[4-(3-GPro)Benzoyl]glycyl}-1,5,10-TAD trihydrochloride] |  |
| 100% | 99.7% | 99.9% | 99.5% | 99.8% | 99.7% | 99.8% | 0.97 µg/mL | N=C(N)NCc1ccccc1CCCCC(=O)N[C@@H](CO)C(=O)NCCCCNCCCN [Compound 8, 10-{N-[5-(2-GMP)Pentanoyl]-L-ceryl}-1,5,10-TAD trihydrochloride] |  |
| 100% | 99.8% | 99.8% | 99.7% | 100% | 99.5% | 99.6% |  | N=C(N)NCc1ccc(CCC(=O)N[C@@H](CO)C(=O)NCCCCNCCCN)c(Cl)c1 [Compound 9, 10-{N-[3-(2-Chloro-4-GMP)propanoyl]-L-seryl}-1,5,10-TAD trihydrochloride] |  |

| SMILES | Percent residue in aqueous solution ([1]; Time 0 (taken as 100%)) | Percent residue in aqueous solution ([1]; Time 12 (time unit not given)) | Percent residue in aqueous solution ([1]; Time 24 (time unit not given)) | Percent residue in aqueous solution ([1]; Time 48 (time unit not given)) | Percent residue in aqueous solution ([1]; Time 72 (time unit not given)) | Percent residue in aqueous solution ([1]; Time 120 (time unit not given)) | Percent residue in aqueous solution ([1]; Time 168 (time unit not given)) | IC50 [4] | other results |
| --- | --- | --- | --- | --- | --- | --- | --- | --- | --- |
| N=C(N)Nc1ccc(CCCC(=O)N[C@@H](CO)C(=O)NCCCCNCCCN)cc1 [Compound 1, 10-{N-[4-(4-GP)Butanoyl]-L-seryl}-1,5,10-TAD trihydrochloride] | 100% | 99.8% | 99.6% | 99.8% | 99.5% | 99.6% | 99.5% |  | Decrease rate of body weight of rats [2]: very small; toxicity ([2]; rats): a little; T/C (percent life prolongation) ([3]; 0.39 mg/kg/day): 149%; T/C (percent life prolongation) ([3]; 0.78 mg/kg/day): 406%; T/C (percent life prolongation) ([3]; 1.56 mg/kg/day): 435%; T/C (percent life prolongation) ([3]; 3.13 mg/kg/day): 435%; T/C (percent life prolongation) ([3]; 6.25 mg/kg/day): 435%; T/C (percent life prolongation) ([3]; 12.50 mg/kg/day): 420%; T/C (percent life prolongation) ([3]; 25.00 mg/kg/day): 178% |
| N=C(N)NCCCCC(O)CC(=O)NC(O)C(=O)NCCCCNCCCN (stereo not drawn) [Spergualin] | 100% |  |  |  |  |  |  |  | stability in an aqueous solution [5]: unstable; inhibit the growth of Gram-positive microorganisms [6]: ability to inhibit the growth; antineoplastic effects [7]: significant antineoplastic effects; antineoplastic effects [8]: significant antineoplastic effects; antineoplastic effects [9]: significant antineoplastic effects; antineoplastic effects [10]: significant antineoplastic effects |
